What was measured:
[1] = target: T1, TANK binding kinase (TBK1) (Homo sapiens, UniProt Q9UHD2); test: TBK1 enzyme assay (384-well Flashplate kinase assay); assay type: biochemical; settings: 10 μM ATP, 120 Min at 30° C.
T1 sequence (Q9UHD2 1-729): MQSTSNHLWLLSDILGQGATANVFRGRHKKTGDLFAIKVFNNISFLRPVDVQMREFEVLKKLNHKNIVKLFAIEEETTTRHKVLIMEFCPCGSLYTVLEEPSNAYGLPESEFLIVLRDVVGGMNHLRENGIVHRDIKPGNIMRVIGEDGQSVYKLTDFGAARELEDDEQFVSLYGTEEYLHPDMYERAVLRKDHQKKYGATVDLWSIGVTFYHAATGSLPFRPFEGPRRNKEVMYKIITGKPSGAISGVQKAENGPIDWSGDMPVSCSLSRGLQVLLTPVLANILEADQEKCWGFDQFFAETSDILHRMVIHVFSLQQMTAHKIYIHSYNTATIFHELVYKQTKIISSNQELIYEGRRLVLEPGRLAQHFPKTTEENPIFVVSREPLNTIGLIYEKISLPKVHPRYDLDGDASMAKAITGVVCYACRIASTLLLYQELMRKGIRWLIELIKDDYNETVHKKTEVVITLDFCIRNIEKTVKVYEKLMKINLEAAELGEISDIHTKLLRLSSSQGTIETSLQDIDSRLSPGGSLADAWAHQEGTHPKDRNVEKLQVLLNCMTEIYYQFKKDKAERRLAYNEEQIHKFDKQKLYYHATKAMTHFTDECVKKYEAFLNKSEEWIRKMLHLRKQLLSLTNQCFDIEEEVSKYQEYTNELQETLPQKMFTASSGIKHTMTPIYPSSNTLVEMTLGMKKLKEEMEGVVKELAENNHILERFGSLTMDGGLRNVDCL
Experimental: The kinase assay is performed as 384-well Flashplate assay (for e.g. Topcount measurement.
0.6 nM TANK binding kinase (TBK1), 800 nM biotinylated MELK-derived peptide (Biotin-Ah-Ah-[…]) and 10 μM ATP (spiked with 0.25 μCi ^33P-ATP/well) are incubated in a total volume of 50 μl (10 mM MOPS, 10 mM Mg-acetat, 0.1 mM EGTA, 1 mM DTT, 0.02% Brij35, 0.1% BSA, pH 7.5) with or without test compound for 120 Min at 30° C. The reaction is stopped with 25 μl 200 mM EDTA. After 30 Min at room temperature the liquid is removed and each well washed thrice with 100 μl 0.9% sodium chloride solution. Nonspecific reaction is determined in presence of 100 nM Staurosporine. Radioactivity is measured in a Topcount (PerkinElmer). Results (e.g. IC50-values) are calculated with program tools provided by the IT-department (e.g. AssayExplorer, Symyx).

IKKε = target: T2, IKKε (Homo sapiens, UniProt Q14164); test: IKKε kinase assay (384-well Flashplate); assay type: biochemical; settings: 10 μM ATP, 2 hours at 30° C.; read-out: IKKε enzyme assay IC50
T2 sequence (Q14164 1-716): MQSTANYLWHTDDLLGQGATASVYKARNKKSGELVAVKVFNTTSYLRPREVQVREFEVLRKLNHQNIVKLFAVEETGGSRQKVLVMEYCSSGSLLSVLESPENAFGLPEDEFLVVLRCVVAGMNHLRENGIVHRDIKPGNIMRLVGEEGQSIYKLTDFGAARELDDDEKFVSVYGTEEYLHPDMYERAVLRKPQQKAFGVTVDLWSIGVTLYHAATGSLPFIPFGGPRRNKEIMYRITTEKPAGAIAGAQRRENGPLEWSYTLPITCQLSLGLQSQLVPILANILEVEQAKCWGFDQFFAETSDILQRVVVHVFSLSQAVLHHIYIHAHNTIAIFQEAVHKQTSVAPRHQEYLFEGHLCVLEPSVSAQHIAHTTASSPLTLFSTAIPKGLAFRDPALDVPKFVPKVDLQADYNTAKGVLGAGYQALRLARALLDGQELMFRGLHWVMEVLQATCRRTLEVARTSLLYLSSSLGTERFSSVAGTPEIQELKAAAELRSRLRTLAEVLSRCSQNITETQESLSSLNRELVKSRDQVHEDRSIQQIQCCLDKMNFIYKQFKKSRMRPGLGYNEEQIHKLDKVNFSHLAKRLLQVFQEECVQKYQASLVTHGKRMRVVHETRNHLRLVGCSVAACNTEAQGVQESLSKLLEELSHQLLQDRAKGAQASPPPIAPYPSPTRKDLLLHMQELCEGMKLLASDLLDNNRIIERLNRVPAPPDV
Experimental: The kinase assay is performed either as 384-well Flashplate assay (for e.g. Topcount measurement).
1 nM IKKε, 800 nM biotinylated IκBα(19-42) peptide (Biotin-C6-C6-[…]) and 10 μM ATP (spiked with 0.3 μCi ^33P-ATP/well) are incubated in a total volume of 50 μl (10 mM MOPS, 10 mM Mg-acetat, 0.1 mM EGTA, 1 mM Dithiothreitol, 0.02% Brij35, 0.1% BSA, 0.1% BioStab, pH 7.5) with or without test compound for 2 hours at 30° C. The reaction is stopped with 25 μl 200 mM EDTA. After 30 Min at room temperature the liquid is removed and each well washed thrice with 100 μl 0.9% sodium chloride solution. […] Radioactivity is measured with Topcount (PerkinElmer). Results (e.g. IC50-values) are calculated with program tools provided by the IT-department (e.g. AssayExplorer, Symyx).

COc1cc(-c2cc3nccc(-c4ccc(OC5CCOCC5)c(C#N)c4)c3o2)ccc1C(=O)N1CCNCC1 [Compound A35, 5-{2-[3-methoxy-4-(piperazin-1-carbonyl)-phenyl]-furo[3,2-b]pyridin-7-yl}-2-(tetrahydro-pyran-4-yloxy)-benzonitrile]
IC50 [1]: < 300 nM | IC50 (IKKε): < 300 nM

COc1cc(-c2cc3nccc(-c4ccc(OC5CCOCC5)c(C#N)c4)c3o2)ccc1C(=O)N[C@H]1CCCNC1 [Compound A94]
IC50 [1]: < 300 nM | IC50 (IKKε): < 300 nM

COc1cc(C(=O)N2CCC(O)CC2)ccc1-c1cc2nccc(-c3ccc(OC4CCOCC4)c(C#N)c3)c2o1 [Compound A116]
IC50 [1]: < 300 nM | IC50 (IKKε): < 300 nM

CN1CCN(C(=O)c2ccc(-c3cc4nccc(-c5ccc(N6CCCC6)c(C#N)c5)c4o3)cc2)CC1 [Compound A74]
IC50 [1]: < 300 nM | IC50 (IKKε): < 300 nM

COc1cc(-c2cc3nccc(-c4ccc(OC5CCOCC5)c(C#N)c4)c3o2)ccc1C(=O)N[C@@H]1CCCNC1 [Compound A106]
IC50 [1]: < 300 nM | IC50 (IKKε): < 300 nM

N#Cc1cc(-c2ccnc3cc(-c4ccc(C(=O)NC5COc6ccccc6C5)cc4)oc23)ccc1OC1CCOCC1 (stereo not drawn) [Compound A82]
IC50 [1]: 300 to 3000 nM | IC50 (IKKε): 300 to 3000 nM

CC(CO)(CCl)COc1ccc(-c2ccnc3cc(-c4ccc(C(=O)N5CCNCC5)cc4)oc23)cc1C#N (stereo not drawn) [Compound A59]
IC50 [1]: < 300 nM | IC50 (IKKε): < 300 nM

COc1cc(-c2cc3nccc(-c4ccc(OC5CCOC5)c(C#N)c4)c3o2)ccc1C(=O)N1CCNCC1 (stereo not drawn) [Compound A68]
IC50 [1]: < 300 nM | IC50 (IKKε): < 300 nM

COc1cc(-c2cc3nccc(-c4ccc(OC5CCOCC5)c(C#N)c4)c3o2)ccc1C(=O)NC1CCN(C)CC1 [Compound A99]
IC50 [1]: < 300 nM | IC50 (IKKε): < 300 nM

N#Cc1cc(-c2ccnc3cc(-c4ccc(N5CCOCC5)cc4)oc23)ccc1OC1CCOCC1 [Compound A1, 5-[2-(4-Morpholin-4-yl-phenyl)-furo[3,2-b]pyridin-7-yl]-2-(tetrahydro-pyran-4-yloxy)-benzonitrile]
IC50 [1]: 3000 to 50000 nM | IC50 (IKKε): 3000 to 50000 nM

CN1CCN(c2ccc(-c3cc4nccc(-c5ccc(OC6CCOCC6)c(C#N)c5)c4o3)cc2)CC1 [Compound A10, 5-{2-[4-(4-methyl-piperazin-1-yl)-phenyl]-furo[3,2-b]pyridin-7-yl}-2-(tetrahydro-pyran-4-yloxy)-benzonitrile]
IC50 [1]: < 300 nM | IC50 (IKKε): < 300 nM

N#Cc1cc(-c2ccnc3cc(-c4ccc(CN5CCOCC5)s4)oc23)ccc1OC1CCOCC1 [Compound A47]
IC50 [1]: < 300 nM | IC50 (IKKε): < 300 nM

N#Cc1cc(-c2ccnc3cc(-c4ccc(C(=O)NCCN5CCNC5=O)cc4)oc23)ccc1OC1CCOCC1 [Compound A77]
IC50 [1]: < 300 nM | IC50 (IKKε): < 300 nM

N#Cc1cc(-c2ccnc3cc(-c4ccc(C(=O)N5CCNCC5)cc4)oc23)ccc1OC1CCOCC1 [Compound A34, 5-{2-[4-(piperazine-1-carbonyl)-phenyl]-furo[3,2-b]pyridin-7-yl}-2-(tetrahydro-pyran-4-yloxy)-benzonitrile]
IC50 [1]: < 300 nM | IC50 (IKKε): < 300 nM

COc1cc(-c2cc3nccc(-c4ccc(OCC5CC5)c(C#N)c4)c3o2)ccc1C(=O)N1CCNCC1 [Compound A50]
IC50 [1]: < 300 nM | IC50 (IKKε): < 300 nM

Cn1cc(-c2cc3nccc(-c4ccc(OC5CCOCC5)c(C#N)c4)c3o2)cn1 [Compound A46]
IC50 [1]: < 300 nM | IC50 (IKKε): < 300 nM

COc1cc(-c2cc3nccc(-c4ccc(OC5CCOCC5)c(C#N)c4)c3o2)ccc1C(=O)N1CC2(COC2)C1 [Compound A30, 5-{2-[3-methoxy-4-(2-oxa-6-aza-spiro[3.3]heptane-6-carbonyl)-phenyl]-furo[3,2-b]pyridin-7-yl}-2-(tetrahydro-pyran-4-yloxy)-benzonitrile]
IC50 [1]: < 300 nM | IC50 (IKKε): < 300 nM

COc1cccc(-c2cc3nccc(-c4ccc(OC5CCOCC5)c(C#N)c4)c3o2)c1 [Compound A6, 5-[2-(3-methoxy-phenyl)-furo[3,2-b]pyridin-7-yl]-2-(tetrahydro-pyran-4-yloxy)-benzonitrile]
IC50 [1]: 300 to 3000 nM | IC50 (IKKε): 300 to 3000 nM

CCOc1ncccc1-c1cc2nccc(-c3ccc(OC4CCOCC4)c(C#N)c3)c2o1 [Compound A64]
IC50 [1]: < 300 nM | IC50 (IKKε): < 300 nM

N#Cc1cc(-c2ccnc3cc(-c4ccc(C(=O)N5CCNC(=O)CC5)cc4)oc23)ccc1OC1CCOCC1 [Compound A86]
IC50 [1]: < 300 nM | IC50 (IKKε): < 300 nM

N#Cc1cc(-c2ccnc3cc(-c4ccc(C(=O)N5CCNCC5)cc4)oc23)ccc1N1CCCC1 [Compound A72]
IC50 [1]: < 300 nM | IC50 (IKKε): < 300 nM

N#Cc1cc(-c2ccnc3cc(-c4ccc5[nH]c(=O)[nH]c5c4)oc23)ccc1OC1CCOCC1 [Compound A14, 5-[2-(2-oxo-2,3-dihydro-1H-benzoimidazol-5-yl)-furo[3,2-b]pyridin-7-yl]-2-(tetrahydro-pyran-4-yloxy)-benzonitrile]
IC50 [1]: 3000 to 50000 nM | IC50 (IKKε): 3000 to 50000 nM

CN1CCN(C(=O)c2ccc(-c3cc4nccc(-c5ccc(OCC6(C)COC6)c(C#N)c5)c4o3)cc2)CC1 [Compound A61]
IC50 [1]: < 300 nM | IC50 (IKKε): < 300 nM

COc1cc(-c2cc3nccc(-c4ccc(OC5CCOC5)c(C#N)c4)c3s2)ccc1C(=O)N1CCNCC1 (stereo not drawn) [Compound A100]
IC50 [1]: < 300 nM | IC50 (IKKε): < 300 nM

COc1cc(-c2cc3nccc(-c4ccc(OC5CCOCC5)c(C#N)c4)c3o2)ccc1C(=O)N1CCNC(=O)C1 [Compound A109]
IC50 [1]: < 300 nM | IC50 (IKKε): < 300 nM

N#Cc1cc(-c2ccnc3cc(-c4cnn(C5CCNCC5)c4)oc23)ccc1OC1CCOCC1 [Compound A36, 4-(4-{7-[3-Cyano-4-(tetrahydro-pyran-4-yloxy)-phenyl]-furo[3,2-b]pyridin-2-yl}-pyrazol-1-yl)-piperidin]
IC50 [1]: < 300 nM | IC50 (IKKε): < 300 nM

N#Cc1cc(-c2ccnc3cc(-c4cnc5ccccc5c4)oc23)ccc1OC1CCOCC1 [Compound A57]
IC50 [1]: 3000 to 50000 nM | IC50 (IKKε): 300 to 3000 nM

N#Cc1cc(-c2ccnc3cc(-c4ccc(C(=O)NCCN5CCCC5)cc4)oc23)ccc1OC1CCOCC1 [Compound A78]
IC50 [1]: < 300 nM | IC50 (IKKε): < 300 nM

N#Cc1cc(-c2ccnc3cc(-c4cccc5[nH]cnc45)oc23)ccc1OC1CCOCC1 [Compound A13, 5-[2-(1H-benzoimidazol-4-yl)-furo[3,2-b]pyridin-7-yl]-2-(tetrahydro-pyran-4-yloxy)-benzonitrile]
IC50 [1]: 300 to 3000 nM | IC50 (IKKε): 300 to 3000 nM

CS(=O)(=O)c1cncc(-c2cc3nccc(-c4ccc(OC5CCOCC5)c(C#N)c4)c3o2)c1 [Compound A70]
IC50 [1]: 300 to 3000 nM | IC50 (IKKε): 300 to 3000 nM

Source: patent publication US9045493B2, “Furo[3,2-b]- and thieno[3,2-b]pyridin derivatives” (Merck Patent GmbH, priority 2012, dated 2015)
